PubChem BioAssay AID1259426 (Fisher Drug Discovery Resource Center, 2018)
Calls of active or inactive are those of the source.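 The calls were made as follows: active = EC50 under a set limit in control cells lacking the mosquito receptor, marking a fluorescence artifact; inactive = the rest.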

These molecules were tested against HEK293 Galpha15/GCaMP6s without NPYLR7, calcium fluorescence (assay: calcium response in NPYLR7-null HEK293 cells, dose response, counter-screen for mosquito NPYLR7 agonist project, cell-based, HEK293 lacking NPYLR7 (AID 1259426);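 also: potency for a rise in fluorescence over baseline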).

SMILES	EC50
COc1ccc(-n2ccnc2-c2ccc(C#CC(C)(C)O)cc2)cn1	> 20 µM (inactive)
CC(=O)Oc1ccc(Cn2c(C)c(C(=O)NCc3ccc(C#N)cc3)sc2=O)cc1	> 20 µM (inactive)
O=C1/C(=C/c2cc3cc(Br)ccc3o2)Oc2c1ccc(O)c2CN1CCN(CCO)CC1	6.64 µM
COc1cc(-c2nc3n(n2)C(c2ccc(O)cc2)C(C(N)=O)=C(C)N3)cc(OC)c1OC (configuration not stated)	> 20 µM (inactive)
N#CC(C#N)=C1C=C2C=C(N3CCN(Cc4ccccc4)CC3)CCC2CC1 (configuration not stated)	> 20 µM (inactive)
CC(C(=O)O)N1C(=O)/C(=C\c2ccc(O)cc2)SC1=S (configuration not stated)	12.1 µM
FC(F)(F)c1ccc(-c2nc3ccc(Cl)cn3c2NCc2ccccc2)cc1	> 20 µM (inactive)
CC1N(C)c2ccc(C=Cc3cc[n+](C)cc3)cc2C1(C)C (configuration not stated)	8.49 µM
CSCCC(C(=O)O)N1C(=O)/C(=C/c2ccc(O)cc2)SC1=S (configuration not stated)	6.49 µM
COc1ccc2oc(=O)c(-c3nnc(Nc4cc(Cl)ccc4OC)s3)cc2c1	> 20 µM (inactive)
CNCC(O)c1ccc(O)c(O)c1 (configuration not stated)	0.327 µM
CCCn1c2c(c(=O)n(C)c1=O)C(=O)C(=Cc1ccc(N(C)C)cc1)N2	2.17 µM
O=C(C1=NN(c2ccccc2)C2C(=O)N(c3ccccc3)C(=O)C12)c1ccccc1 (configuration not stated)	> 20 µM (inactive)
CC(=NNc1ncnc2sc(C)c(C)c12)c1ccccn1	inactive
Cc1ccc(C2=NN(C(=O)CN3CCN(C)CC3)C(c3ccccc3Cl)C2)cc1 (configuration not stated)	> 20 µM (inactive)
CCN1C(=Cc2cc(C)[n+](C3CCCCC3)c(C)c2)Sc2ccccc21	> 20 µM (inactive)
COc1cc(/C=C2\SC(=S)N(C(C)C(=O)O)C2=O)ccc1O (configuration not stated)	3.02 µM
CN1CCN(Cc2c(O)ccc3c2O/C(=C\c2cc4cc(Br)ccc4o2)C3=O)CC1	12.7 µM
O=C1c2ccccc2-c2nn(CN3CCN(c4ccccc4)CC3)c3cccc1c23	> 20 µM (inactive)
COc1ccc(N2CCN(c3cc(C(F)(F)F)nc(SCc4cccc(C(=O)NCc5ccccn5)c4)n3)CC2)cc1	> 20 µM (inactive)
CSc1ccc(C2CC(c3ccc(Cl)cc3)=Nc3ncnn32)cc1 (configuration not stated)	> 20 µM (inactive)
Nc1nc(Cl)nc2c1ncn2[C@@H]1O[C@H](CO)[C@@H](O)[C@H]1O	1.15 µM
O=C1NC(=O)C2=Cc3ccc(O)cc3OC2(O)N1 (configuration not stated)	0.247 µM
COc1ccc(CCN2COc3ccc4c(c3C2)O/C(=C\c2cccnc2)C4=O)cc1	> 20 µM (inactive)
COc1cc(C=C2N=C(c3ccc4c(c3)OCO4)OC2=O)cc2c1OCCO2	> 20 µM (inactive)
CN(Cc1cnc2ccccc2n1)C(=O)C1CC2(CCNCC2)CN1 (configuration not stated)	> 20 µM (inactive)

SMILES	EC50
CCOc1cc(/C=C2/NC(=S)NC2=O)cc(Br)c1O	6.37 µM
Cc1cc(O)c(CN2CCCCC2)c2c1C(=O)/C(=C/c1cc3ccccc3o1)O2	18.5 µM
COc1cccc(/C=C2\Oc3c(ccc4c3CN(Cc3ccncc3)CO4)C2=O)c1	10.5 µM
CCOC(=O)c1ccc(N=c2oc3cc(O)ccc3cc2-c2nc3ccccc3[nH]2)cc1	0.204 µM
Cc1ccc2c(c1)CCCN2CC(=O)N(CCC(N)=O)c1ccccc1	16.8 µM
COc1ccccc1Oc1nc2ccccn2c(=O)c1/C=C(\C#N)c1nc2ccccc2s1	> 20 µM (inactive)
C#CCN1C(=O)SC(=Cc2ccc(N3CCCCC3)o2)C1=O	2.36 µM
O=C1/C(=C/c2cccc(Br)c2)Oc2c1ccc(O)c2CN1CCN(CCO)CC1	12.7 µM
Cc1cccc(N2C(=O)NC(=O)/C(=C/c3cn(C)c4ccccc34)C2=O)c1	> 20 µM (inactive)
N#Cc1cccc(C(=O)N2CCN(C(c3ccccc3)c3ccc(Br)cc3)CC2)c1 (configuration not stated)	> 20 µM (inactive)
COc1cc(OC)cc(C(=O)N2CCN(C(C(=O)Nc3ccc(NC(C)=O)cc3)C3CCCC3)CC2)c1 (configuration not stated)	> 20 µM (inactive)
CCN1CC(=Cc2cc(C)n(C3CC3)c2C)C(=O)C(=Cc2cc(C)n(C3CC3)c2C)C1	> 20 µM (inactive)
O=C1/C(=C/c2cc3ccccc3o2)Oc2c1ccc(O)c2CN1CCN(CCO)CC1	1.94 µM
NC(=NC1C2CC3CC(C2)CC1C3)Nc1ccc(I)cc1 (configuration not stated)	14.1 µM
CC(C)N=c1c([N+](=O)[O-])nn(-c2ccc(Cl)cc2)n1O	> 20 µM (inactive)
Cc1cc(C=C2Sc3ccccc3N2C)cc(C)[n+]1-c1ccccc1	1.51 µM
Cc1ccc(OCCNC(=O)N2CCN(S(=O)(=O)c3ccccc3Cl)CC2)c(C)c1	> 20 µM (inactive)
O=C(O)CN1C(=O)/C(=C/c2cc(Br)c(O)c(Br)c2)SC1=S	0.289 µM
Nc1ccc2c3c(cccc13)C(=O)N(c1ccccc1)C2=O	0.415 µM
Cc1cc2nc3c(=O)[nH]c(=O)nc-3n(C[C@H](O)[C@H](O)[C@H](O)CO)c2cc1C	0.508 µM
COc1cc(C=C2Oc3cc(O)ccc3C2=O)cc(OC)c1OC	4.83 µM
CN1C(=CC=C2C(=O)CC(C)(C)CC2=O)C(C)(C)c2ccccc21	13.1 µM
CCOc1ccc(C(=O)Nc2sc3c(c2-c2nc4ccccc4s2)CCN(C)C3)cc1	> 20 µM (inactive)
c1ccc(CNc2nc(NCCc3ccncc3)c3sccc3n2)cc1	15.8 µM
N#Cc1cc(C(=O)c2cc(Cl)cc(Cl)c2O)cn(-c2nccs2)c1=O	> 20 µM (inactive)
CCC(C)n1cc(/C=C2/C(=O)NC(=O)N(c3ccc4c(c3)OCO4)C2=O)c2ccccc21 (configuration not stated)	> 20 µM (inactive)

SMILES	EC50
NC(=NCCCCCCN=C(N)N=C(N)Nc1ccc(Cl)cc1)N=C(N)Nc1ccc(Cl)cc1	> 20 µM (inactive)
CCN1C(=Cc2cc(C)[n+](CC3CCCO3)c(C)c2)Sc2ccccc21 (configuration not stated)	> 20 µM (inactive)
CCCC[n+]1c(C)cc(C=C2Sc3ccccc3N2C)cc1C	> 20 µM (inactive)
O=[N+]([O-])c1ccc(-n2nc3ccc4nonc4c3n2)cc1	> 20 µM (inactive)
Nc1nc(Cl)nc2c1ncn2[C@@H]1O[C@H](COP(=O)(O)OP(=O)(O)OP(=O)(O)O)[C@H](O)C1O (some centres not stated)	> 20 µM (inactive)
COc1ccc(OC)c(CCNc2nc3cnc(-c4ccc(Cl)cc4)cc3n2C)c1	> 20 µM (inactive)
CCN(CC)CCNC(=O)c1c(C)[nH]c(/C=C2/C(=O)Nc3ccc(F)cc32)c1C	11.3 µM
CC(C)NC[C@H](O)c1ccc(O)c(O)c1	< 0.039 µM
CC(C)NC(=O)C(C)N1CCc2onc(-c3ccc(C(F)(F)F)cc3)c2C1 (configuration not stated)	8.58 µM
CN1C(=S)N(c2ccc3c(c2)CCC3)C(=O)/C1=C\c1ccncc1	> 20 µM (inactive)
Fc1cc(F)cc(C2C=C(c3ccco3)Nc3ncnn32)c1 (configuration not stated)	8.31 µM
COc1cc(C(=O)N2CCOC(c3ccccc3)C2)cc(OC)c1C (configuration not stated)	> 20 µM (inactive)
Cc1cc2nc3c(=O)[nH]c(=O)nc-3n(CC(O)C(O)C(O)CO)c2cc1C (configuration not stated)	< 0.039 µM
C[C@H](O)C(=O)C1=Nc2c(nc(N)[nH]c2=O)NC1	> 20 µM (inactive)
CCCc1[nH]n(-c2ccc(Cl)c(Cl)c2)c(=O)c1/C=C1\NC(=O)N(Cc2ccc(C)cc2)C1=O	18.9 µM
CC1(C)CC(=O)C2C(=Nc3[nH]c(=S)[nH]c(=O)c3C2c2ccc3c(c2)OCO3)C1 (configuration not stated)	> 20 µM (inactive)
Cc1ccc(N2C(=O)NC(=O)/C(=C\c3cccs3)C2=O)cc1	> 20 µM (inactive)
CCc1nc(N=C(N)N)nc2cc(C)ccc12	> 20 µM (inactive)
O=C(CNCc1ccccc1)N1CC(=O)N(c2cccc(Cl)c2)C1	> 20 µM (inactive)
CCNC(=O)[C@H]1O[C@@H](n2cnc3c(N)ncnc32)C(O)[C@H]1O (some centres not stated)	< 0.039 µM
CC1(C)CC(c2[nH]cnc2-c2ccccc2)CCO1 (configuration not stated)	> 20 µM (inactive)
COCCN=Cc1cc(I)cc(I)c1O	> 20 µM (inactive)
C[n+]1c2cc(N)ccc2cc2ccc(N)cc21	< 0.039 µM
N#Cc1cc2cc(Cl)cc(Cl)c2oc1=O	1.94 µM
CN(Cc1ccccc1)c1cc(Oc2cccc(Cl)c2)ncn1	> 20 µM (inactive)
CCc1ccc(/C=C2\Oc3c(ccc4c3CN(C3CCS(=O)(=O)C3)CO4)C2=O)cc1 (configuration not stated)	10.6 µM

SMILES	EC50
COc1ccc(-n2ccnc2-c2nc(-c3cccs3)oc2C)cn1	> 20 µM (inactive)
Cc1ccc(NC2C=CS(=O)(=O)C2)cc1C (configuration not stated)	> 20 µM (inactive)
O=c1oc2c(CN3CC4CC(C3)c3cccc(=O)n3C4)c(O)ccc2cc1-c1nc2ccccc2s1 (configuration not stated)	13.4 µM
CC(=O)[C@]1(O)Cc2c(O)c3c(c(O)c2[C@@H](O[C@H]2C[C@H](N)[C@H](O)[C@H](C)O2)C1)C(=O)c1ccccc1C3=O	4.29 µM
CCN1C(=Cc2ccc3cc(C)ccc3[n+]2CC)Sc2ccccc21	0.911 µM
CN(C)c1ccc(/C=C2/SC(=S)N(CC(=O)O)C2=O)cc1Br	0.346 µM
CN1C(=S)N(C2CCCCC2)C(=O)/C1=C\c1ccc2c(c1)OCO2	> 20 µM (inactive)
CC(C)(C)c1cnc(CSc2cnc(NC(=O)C3CCNCC3)s2)o1	> 20 µM (inactive)
O=c1oc2c(CN3CCN(CCO)CC3)c(O)ccc2cc1-c1nc2ccccc2s1	< 0.039 µM
COC(=O)c1cnc(/C=C/c2cc(C)c(O)c(C)c2)s1	> 20 µM (inactive)
N#CC1C(=N)Oc2cc(O)ccc2C1c1ccc(Cl)cc1Cl (configuration not stated)	11.9 µM
O=[N+]([O-])c1c[n+]([O-])n(-c2cccc(Cl)c2)n1	> 20 µM (inactive)
COc1cc(C=C(C#N)S(=O)(=O)c2cc(Cl)ccc2Cl)cc(Br)c1O	6.43 µM
O=C(CC1SC(=O)NC1=O)Oc1ccc(/C=C2\SC(=O)NC2=S)cc1 (configuration not stated)	7.71 µM
C=C(C)Cn1c(C(=O)N2CCN(C(=O)CCC(=O)OCC)C(C)C2)cc2ccoc21 (configuration not stated)	> 20 µM (inactive)
COc1ccc2nc(C=Cc3cc(Br)c(O)c(OC)c3)sc2c1	> 20 µM (inactive)
Cc1ccc(-c2nc3nc(N)n(C)c(=O)c3[nH]c2=O)cc1	> 20 µM (inactive)
Nc1ncnc2c1ncn2[C@@H]1O[C@H](CO)[C@@H](O)[C@H]1O	< 0.039 µM
CN(Cc1ccccc1)C1=CC2=CC(=C(C#N)C#N)CCC2CC1 (configuration not stated)	> 20 µM (inactive)
O=C(CSc1cn(CC(=O)N2CCCCCC2)c2ccccc12)NC1CCCC1	> 20 µM (inactive)
CC(=O)NN1C(=O)/C(=C\c2ccc(O)cc2)SC1=S	3.61 µM
CCOC(=O)c1cc(O)c(C(=O)OCC)s1	> 20 µM (inactive)
CNC[C@H](O)c1ccc(O)c(O)c1	0.039 µM
O=c1[nH]c(SCCO)nc2sc3c(c12)CCCC3	> 20 µM (inactive)
